Laboratory results reported in BindingDB's records for doi:10.7270/Q2WQ02FK (The Scripps Research Institute Molecular Screening Center, 2013).

target: T1, T cell receptor alpha variable 4 (Homo sapiens, UniProt A0A0B4J268)
T1 sequence (A0A0B4J268 whole entry): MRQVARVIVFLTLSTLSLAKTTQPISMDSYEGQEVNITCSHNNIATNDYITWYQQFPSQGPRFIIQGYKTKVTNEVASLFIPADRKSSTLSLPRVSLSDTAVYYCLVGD

**Q.** How did the IC50 turn out when `O=C(N/N=C/C1C=C([N+](=O)[O-])C=C([N+](=O)[O-])C1=O)/C(=C\c1cccs1)NC(=O)c1ccccc1` (configuration not stated) [SMR000207704] was run?
**A.** Its IC50 is greater than 94.1 µM.

**Q.** For `CN1C(=O)C(C=NNC(=O)c2cc3ccccc3cc2O)c2ccccc21` (configuration not stated) [MLS000912237], which IC50 is on record?
**A.** The IC50 was greater than 94.1 µM.

**Q.** Which IC50 does the source give for `CCOC(=O)C1C(CC)=Nc2ccccc2N=C1NC(=O)Nc1ccc(Cl)c(Cl)c1` (configuration not stated) here?
**A.** Its IC50 is 10.7 µM.

**Q.** `O=C1NC(=O)N(Cc2ccco2)C(=O)C1=CNNC(=O)c1ccccc1` [N'-[(E)-[1-(furan-2-ylmethyl)-2,4,6-tris(oxidanylidene)-1,3-diazinan-5-ylidene]methyl]benzohydrazide] was tested. Which IC50 did it give?
**A.** Its IC50 is greater than 94.2 µM.

**Q.** For `Cc1ccc(C(=O)Nc2nc(C(C)(C)C)cs2)s1` [N-(4-tert-butyl-2-thiazolyl)-5-methyl-2-thiophenecarboxamide], which IC50 is on record?
**A.** The IC50 was greater than 94.1 µM.

**Q.** `O=[N+]([O-])c1cc(Br)c(O)c(CN=Nc2nnnn2-c2cccc3ccccc23)c1` [(6E)-2-bromo-6-[[2-(1-naphthalen-1-yltetrazol-5-yl)hydrazinyl]methylidene]-4-nitrocyclohexa-2,4-dien-1-one] was tested. Which IC50 did it give?
**A.** The IC50 was greater than 94.1 µM.

**Q.** `O=C(N/N=C/C1C=C([N+](=O)[O-])C=CC1=O)c1cccc(N2CCCC2=O)c1` (configuration not stated) was tested. Which IC50 did it give?
**A.** The IC50 was greater than 94.1 µM.

**Q.** For `COC1=CC([N+](=O)[O-])=CC(/C=N/NC(=O)c2cc(C)nc3ccccc23)C1=O` (configuration not stated), which IC50 is on record?
**A.** Its IC50 is greater than 94.1 µM.

**Q.** For `Nc1nnc(CC(=O)N/N=C/C2C=C([N+](=O)[O-])C=CC2=O)s1` (configuration not stated) [2-(5-amino-1,3,4-thiadiazol-2-yl)-N'-[(E)-(3-nitro-6-oxo-1-cyclohexa-2,4-dienylidene)methyl]acetohydrazide], which IC50 is on record?
**A.** Its IC50 is greater than 94.1 µM.

**Q.** For `O=Nc1[nH]c(=O)c(CC(=O)c2ccccc2)nc1NO` [SMR000539633], which IC50 is on record?
**A.** Its IC50 is greater than 94.2 µM.

**Q.** `Cc1cc(C(=O)NN=CC2C=C(Cl)C=C([N+](=O)[O-])C2=O)[nH]n1` (configuration not stated) [SMR000414694] was tested. Which IC50 did it give?
**A.** Its IC50 is greater than 94.1 µM.

**Q.** How did the IC50 turn out when `O=C(NC(C(=O)NN=CC1C=C([N+](=O)[O-])C=CC1=O)c1n[nH]c(=O)c2ccccc12)c1ccccc1` (configuration not stated) [N-[2-[2-[(E)-(3-nitro-6-oxidanylidene-cyclohexa-2,4-dien-1-ylidene)methyl]hydrazinyl]-2-oxidanylidene-1-(4-oxidanylidene-3H-phthalazin-1-yl)ethyl]benzamide] was run?
**A.** Its IC50 is greater than 94.1 µM.

**Q.** For `Oc1c(Br)cc(CC=Nc2cc(O)c3cccnc3c2O)cc1Br` [7-[2-(3,5-dibromo-4-hydroxyphenyl)ethylamino]quinoline-5,8-dione], which IC50 is on record?
**A.** The IC50 was 18.8 µM.

**Q.** `O=C(N/N=C/C1C=C(Cl)C=C([N+](=O)[O-])C1=O)c1cccc(S(=O)(=O)N2CCOCC2)c1` (configuration not stated) [MLS002155639] was tested. Which IC50 did it give?
**A.** The IC50 was greater than 94.1 µM.

**Q.** With `C=CCN1C(=O)/C(=N\NC(=O)CNC(=O)/C=C/c2ccco2)c2ccccc21` [(E)-N-[1-Allyl-2-oxo-1,2-dihydro-indol-(3Z)-ylidene-hydrazinocarbonylmethyl]-3-furan-2-yl-acrylamide] as the compound, how does the IC50 read?
**A.** Its IC50 is greater than 94.1 µM.

**Q.** Which IC50 does the source give for `CCc1n[nH]c(=S)n1N=CC1C=C(OC)C=C([N+](=O)[O-])C1=O` (configuration not stated) [(6E)-6-[[(3-ethyl-5-sulfanylidene-1H-1,2,4-triazol-4-yl)amino]methylidene]-4-methoxy-2-nitro-1-cyclohexa-2,4-dienone] here?
**A.** The IC50 was 18.4 µM.

**Q.** Which IC50 does the source give for `O=C1CC(=O)c2c(O)cc(O)c(O)c2C1=O` [4,5,7,8-tetrahydroxy-1,2-naphthoquinone] here?
**A.** Its IC50 is greater than 94.1 µM.

**Q.** Which IC50 does the source give for `COC1=CC(=O)C(/C=N/NC(=O)c2ccncc2)C(OC)=C1[N+](=O)[O-]` (configuration not stated) [MLS000673335] here?
**A.** Its IC50 is greater than 94.1 µM.

**Q.** Which IC50 does the source give for `O=C(CSc1nc2ccccc2s1)N/N=C/C1C=C([N+](=O)[O-])C=CC1=O` (configuration not stated) [MLS000777065] here?
**A.** The IC50 was greater than 94.1 µM.

**Q.** With `O=C(CNC(=O)c1ccccc1Br)N/N=C/C1C=C([N+](=O)[O-])C=C(Br)C1=O` (configuration not stated) [2-bromanyl-N-[2-[2-[(E)-(5-bromanyl-3-nitro-6-oxidanylidene-cyclohexa-2,4-dien-1-ylidene)methyl]hydrazinyl]-2-oxidanylidene-ethyl]benzamide] as the compound, how does the IC50 read?
**A.** The IC50 was greater than 94.1 µM.

**Q.** For `CCOC(=O)c1c(C)[nH]c(C(=O)N/N=C/C2C=C([N+](=O)[O-])C=CC2=O)c1C` (configuration not stated) [ethyl 2,4-dimethyl-5-[[[(E)-(3-nitro-6-oxocyclohexa-2,4-dien-1-ylidene)methyl]amino]carbamoyl]-1H-pyrrole-3-carboxylate], which IC50 is on record?
**A.** The IC50 was greater than 94.1 µM.

**Q.** How did the IC50 turn out when `Cc1cc(=O)oc2cc(OCC(=O)N/N=C/C3C=C([N+](=O)[O-])C=CC3=O)ccc12` (configuration not stated) [MLS000588734] was run?
**A.** Its IC50 is greater than 94.1 µM.

**Q.** Which IC50 does the source give for `Cc1cc(C(=O)N/N=C/C2C=C(Br)C=C([N+](=O)[O-])C2=O)c2ccccc2n1` (configuration not stated) [MLS000585468] here?
**A.** The IC50 was greater than 94.1 µM.

**Q.** Which IC50 does the source give for `O=C(O)c1ccccc1NS(=O)(=O)c1ccc(N=NCc2ccc(O)c(O)c2)c([N+](=O)[O-])c1` [SMR001238114] here?
**A.** Its IC50 is 32.5 µM.

**Q.** With `COc1ccc(C(=O)CC=NNC(=O)c2ccc(Cl)cc2)cc1` [SMR000499516] as the compound, how does the IC50 read?
**A.** The IC50 was greater than 94.1 µM.

**Q.** With `CC1=CC(/C=N/n2c(COc3ccccc3C)nc3ccccc3c2=O)C(=O)C([N+](=O)[O-])=C1` (configuration not stated) as the compound, how does the IC50 read?
**A.** Its IC50 is greater than 94.1 µM.

**Q.** For `O=C1C=CC([N+](=O)[O-])=CC1C=NNC(=S)Nc1ccc(Cl)cc1Cl` (configuration not stated) [MLS000777079], which IC50 is on record?
**A.** Its IC50 is greater than 94.1 µM.

**Q.** Which IC50 does the source give for `O=C(N/N=C/C1C=C(Cl)C=C([N+](=O)[O-])C1=O)c1ccc2c(c1)OCO2` (configuration not stated) [N'-[(E)-(3-chloranyl-5-nitro-6-oxidanylidene-cyclohexa-2,4-dien-1-ylidene)methyl]-1,3-benzodioxole-5-carbohydrazide] here?
**A.** Its IC50 is greater than 94.1 µM.

**Q.** With `O=C1C=CC([N+](=O)[O-])=CC1/C=N/n1c(COc2ccccc2)nc2ccccc2c1=O` (configuration not stated) [3-[[(E)-(3-nitro-6-oxocyclohexa-2,4-dien-1-ylidene)methyl]amino]-2-(phenoxymethyl)quinazolin-4-one] as the compound, how does the IC50 read?
**A.** The IC50 was greater than 94.1 µM.

**Q.** How did the IC50 turn out when `COc1ccc(CC(=O)N/N=C/C2C=C([N+](=O)[O-])C=C(Br)C2=O)cc1` (configuration not stated) was run?
**A.** The IC50 was greater than 94.1 µM.

**Q.** `O=C1NC(=O)N(Cc2ccco2)C(=O)C1=CNNC(=O)c1ccccc1O` [N'-[(E)-[1-(furan-2-ylmethyl)-2,4,6-tris(oxidanylidene)-1,3-diazinan-5-ylidene]methyl]-2-oxidanyl-benzohydrazide] was tested. Which IC50 did it give?
**A.** The IC50 was greater than 94 µM.

**Q.** For `O=C(N/N=C/C1C=C([N+](=O)[O-])C=CC1=O)/C(=C\c1cccs1)NC(=O)c1ccccc1` (configuration not stated) [MLS000332530], which IC50 is on record?
**A.** Its IC50 is greater than 94.1 µM.

**Q.** With `Cc1cc2cc(CNC(=O)c3ccc(C)c([N+](=O)[O-])c3)ccc2[nH]1` [MLS000724615] as the compound, how does the IC50 read?
**A.** Its IC50 is greater than 94.1 µM.

**Q.** `CC1=CC([N+](=O)[O-])=CC(/C=N/n2c(C)nc3ccccc3c2=O)C1=O` (configuration not stated) [MLS000778735] was tested. Which IC50 did it give?
**A.** Its IC50 is greater than 94 µM.

**Q.** With `O=C1C([N+](=O)[O-])=CC=CC1/C=N/n1cnc2scc(-c3ccc(Cl)cc3)c2c1=O` (configuration not stated) [SMR000314525] as the compound, how does the IC50 read?
**A.** Its IC50 is greater than 94.1 µM.

**Q.** For `CC1=CC(/C=N/n2c(CO[N-][C+](C)c3ccccc3)nc3ccccc3c2=O)C(=O)C([N+](=O)[O-])=C1` (configuration not stated), which IC50 is on record?
**A.** The IC50 was greater than 94.1 µM.

**Q.** How did the IC50 turn out when `Cc1c(NC(=S)NN=CC2C=C([N+](=O)[O-])C=CC2=O)c(=O)n(-c2ccccc2)n1C` (configuration not stated) [SMR000415003] was run?
**A.** The IC50 was greater than 94.1 µM.

**Q.** How did the IC50 turn out when `CCC(NNC(=O)c1ccccc1O)=C1C(=O)NC(=O)N(Cc2ccccc2)C1=O` [2-hydroxy-N'-[(1E)-1-[2,4,6-trioxo-1-(phenylmethyl)-1,3-diazinan-5-ylidene]propyl]benzohydrazide] was run?
**A.** The IC50 was greater than 94.1 µM.

**Q.** `O=C(N/N=C/C1C=CC=C([N+](=O)[O-])C1=O)c1cccs1` (configuration not stated) was tested. Which IC50 did it give?
**A.** The IC50 was greater than 94.1 µM.

**Q.** For `Cc1cc(C(=O)N/N=C/C2C=C(Cl)C=C([N+](=O)[O-])C2=O)c2ccccc2n1` (configuration not stated) [N'-[(E)-(3-chloranyl-5-nitro-6-oxidanylidene-cyclohexa-2,4-dien-1-ylidene)methyl]-2-methyl-quinoline-4-carbohydrazide], which IC50 is on record?
**A.** The IC50 was greater than 94.1 µM.

**Q.** With `O=C1NC(=O)N(CCc2ccccc2)C(=O)C1=CNNC(=O)c1ccccc1O` [2-hydroxy-N'-[(E)-[2,4,6-trioxo-1-(2-phenylethyl)-1,3-diazinan-5-ylidene]methyl]benzohydrazide] as the compound, how does the IC50 read?
**A.** The IC50 was greater than 94 µM.

**Q.** With `O=C1C([N+](=O)[O-])=CC(Cl)=CC1C=NNC(=S)Nc1ccc(S(=O)(=O)N2CCOCC2)cc1` (configuration not stated) [1-[[(E)-(3-chloro-5-nitro-6-oxo-1-cyclohexa-2,4-dienylidene)methyl]amino]-3-[4-(4-morpholinylsulfonyl)phenyl]thiourea] as the compound, how does the IC50 read?
**A.** Its IC50 is greater than 94.1 µM.

**Q.** `O=C(NN=CC1=CC(=O)C(=O)CC1)NN=CC1=CC(=O)C(=O)CC1` [1,3-bis[[(Z)-(3-hydroxy-4-oxocyclohexa-2,5-dien-1-ylidene)methyl]amino]urea] was tested. Which IC50 did it give?
**A.** Its IC50 is 1.03 µM.

**Q.** With `CC(NNC(=O)c1ccc(-c2ccccc2)cc1)=C1C(=O)c2ccccc2C1=O` [N-[(E)-1-(1,3-dioxoinden-2-yl)ethylideneamino]-4-phenylbenzamide] as the compound, how does the IC50 read?
**A.** Its IC50 is greater than 94.1 µM.

**Q.** For `Oc1ccc(CN=Nc2ncnc3c2ncn3Cc2ccccc2)cc1O` [(4Z)-2-oxidanyl-4-[[2-[9-(phenylmethyl)purin-6-yl]hydrazinyl]methylidene]cyclohexa-2,5-dien-1-one], which IC50 is on record?
**A.** Its IC50 is greater than 94.1 µM.

**Q.** Which IC50 does the source give for `CC1=CC([N+](=O)[O-])=CC(/C=N/NC(=O)C2COc3ccccc3O2)C1=O` (configuration not stated) [N'-[(E)-(5-methyl-3-nitro-6-oxocyclohexa-2,4-dien-1-ylidene)methyl]-2,3-dihydro-1,4-benzodioxine-3-carbohydrazide] here?
**A.** The IC50 was greater than 94.2 µM.

**Q.** `Cc1ccccc1C(=O)Nc1cccc(C(=O)N/N=C/C2C=C(Cl)C=C([N+](=O)[O-])C2=O)c1` (configuration not stated) [N-(3-{[(2E)-2-(5-chloro-2-hydroxy-3-nitrobenzylidene)hydrazino]carbonyl}phenyl)-2-methylbenzamide] was tested. Which IC50 did it give?
**A.** Its IC50 is greater than 94.1 µM.
